Inconclusive results and toxic doses are left out. No stated cut-off is given here; in the data, active means T/C of 150% or more; inactive means T/C below 125%.
Tested on: L1210 leukemia ip in BDF1 mice, survival T/C
Assay: NCI In Vivo Anticancer Drug Screen. Data for tumor model L1210 Leukemia (intraperitoneal) in B6D2F1 (BDF1) mice
Details: endpoint: mean survival time, higher = longer survival
Summary of the method: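 Transplantable tumor model; survival measured in treated vs vehicle control mice. Value = treated/control.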

[1] = dose: 100.0 mg/kg/injection, schedule: Q04DX003 (ip), vehicle: saline with Tween-80
[2] = dose: 400.0 mg/kg/injection, schedule: Q04DX003 (ip), vehicle: saline with Tween-80
[3] = dose: 12.5 mg/kg/injection, schedule: Q01DX009 (ip), vehicle: Klucel (hydroxypropylcellulose) (HPC)
[4] = dose: 100.0 mg/kg/injection, schedule: Q01DX009 (ip), vehicle: Klucel (hydroxypropylcellulose) (HPC)
[5] = dose: 100.0 mg/kg/injection, schedule: Q04DX003 (ip), vehicle: Klucel (hydroxypropylcellulose) (HPC)
[6] = dose: 200.0 mg/kg/injection, schedule: Q01DX009 (ip), vehicle: Klucel (hydroxypropylcellulose) (HPC)
[7] = dose: 200.0 mg/kg/injection, schedule: Q04DX003 (ip), vehicle: Klucel (hydroxypropylcellulose) (HPC)
[8] = dose: 400.0 mg/kg/injection, schedule: Q01DX009 (ip), vehicle: Klucel (hydroxypropylcellulose) (HPC)
[9] = dose: 400.0 mg/kg/injection, schedule: Q04DX003 (ip), vehicle: Klucel (hydroxypropylcellulose) (HPC)
[10] = dose: 100.0 mg/kg/injection, schedule: Q04DX002 (ip), vehicle: Klucel (hydroxypropylcellulose) (HPC)
[11] = dose: 100.0 mg/kg/injection, schedule: Q04DX003 (ip), vehicle: saline
[12] = dose: 200.0 mg/kg/injection, schedule: Q04DX003 (ip), vehicle: saline
[13] = dose: 400.0 mg/kg/injection, schedule: Q04DX003 (ip), vehicle: saline
[14] = dose: 100.0 mg/kg/injection, schedule: Q01DX009 (ip), vehicle: saline with Tween-80
[15] = dose: 200.0 mg/kg/injection, schedule: Q01DX009 (ip), vehicle: saline with Tween-80
[16] = dose: 200.0 mg/kg/injection, schedule: Q04DX003 (ip), vehicle: saline with Tween-80
[17] = dose: 50.0 mg/kg/injection, schedule: Q01DX001 (ip), vehicle: saline
[18] = dose: 100.0 mg/kg/injection, schedule: Q01DX001 (ip), vehicle: saline
[19] = dose: 200.0 mg/kg/injection, schedule: Q01DX001 (ip), vehicle: saline
[20] = dose: 400.0 mg/kg/injection, schedule: Q01DX001 (ip), vehicle: saline
[21] = dose: 50.0 mg/kg/injection, schedule: Q04DX003 (ip), vehicle: saline with Tween-80

Measured: T/C

CCCCC(C)(C)COc1nc(OCC(C)(C)CCCC)nc(OCC(C)(C)CCCC)n1
inactive: dose: 25.6 mg/kg/injection, schedule: Q04DX002 (ip), vehicle: saline with Tween-80 97 % of control | dose: 64.0 mg/kg/injection, schedule: Q04DX002 (ip), vehicle: saline with Tween-80 87 % of control | [1] 89 % of control | dose: 400.0 mg/kg/injection, schedule: Q04DX002 (ip), vehicle: saline with Tween-80 91 % of control | [2] 89 % of control

C=C(C)CSC(=S)NNc1ccccc1
inactive: dose: 150.0 mg/kg/injection, schedule: Q01DX009 (ip), vehicle: saline with Tween-80 93 % of control | dose: 225.0 mg/kg/injection, schedule: Q01DX009 (ip), vehicle: saline with Tween-80 86 % of control

c1ccc(-c2n[nH]c(-c3ccccn3)n2)nc1
inactive: dose: 6.25 mg/kg/injection, schedule: Q01DX009 (ip), vehicle: Klucel (hydroxypropylcellulose) (HPC) 97 % of control | [3] 112 % of control

CCOC(=O)c1cnn(-c2ccccc2)c1C
inactive: [4] 94 % of control | [5] 112 % of control | [6] 94 % of control | [7] 95 % of control | [8] 102 % of control | [9] 88 % of control

O=C(O)C1CCC(CC2CCC2)CC1 (configuration not stated)
inactive: dose: 100.0 mg/kg/injection, schedule: Q01DX001 (ip), vehicle: Klucel (hydroxypropylcellulose) (HPC) 95 % of control | [5] 98 % of control | dose: 200.0 mg/kg/injection, schedule: Q01DX001 (ip), vehicle: Klucel (hydroxypropylcellulose) (HPC) 100 % of control | [7] 98 % of control | dose: 400.0 mg/kg/injection, schedule: Q01DX001 (ip), vehicle: Klucel (hydroxypropylcellulose) (HPC) 92 % of control | [9] 95 % of control

Cc1ccc(C(=O)CC(Sc2ccccc2N)c2cccc([N+](=O)[O-])c2)cc1 (configuration not stated)
inactive: dose: 100.0 mg/kg/injection, schedule: Q01DX005 (ip), vehicle: Klucel (hydroxypropylcellulose) (HPC) 93 % of control | [4] 97 % of control | [10] 98 % of control | dose: 200.0 mg/kg/injection, schedule: Q01DX005 (ip), vehicle: Klucel (hydroxypropylcellulose) (HPC) 96 % of control | [6] 94 % of control | dose: 400.0 mg/kg/injection, schedule: Q01DX005 (ip), vehicle: Klucel (hydroxypropylcellulose) (HPC) 115 % of control | [8] 97 % of control | dose: 400.0 mg/kg/injection, schedule: Q04DX002 (ip), vehicle: Klucel (hydroxypropylcellulose) (HPC) 95 % of control

c1ccc(C(c2ccccc2)n2ccnc2)cc1
inactive: dose: 37.5 mg/kg/injection, schedule: Q04DX003 (ip), vehicle: saline 94 % of control | dose: 75.0 mg/kg/injection, schedule: Q04DX003 (ip), vehicle: saline 102 % of control | dose: 150.0 mg/kg/injection, schedule: Q04DX003 (ip), vehicle: saline 105 % of control

CC1(C)C(=O)C(C)(C)C1=NO
inactive: [11] 103 % of control | [12] 95 % of control | [13] 103 % of control

CC(O)CN1CCOCC1 (configuration not stated)
inactive: [11] 100 % of control | [12] 97 % of control | [13] 107 % of control

c1ccc(Nc2c3ccccc3nc3ccccc23)cc1
inactive: dose: 100.0 mg/kg/injection, schedule: Q04DX003 (ip), vehicle: other 115 % of control

CC(C)OC(=O)Nc1ccc(Br)cc1
inactive: [10] 88 % of control | dose: 200.0 mg/kg/injection, schedule: Q04DX002 (ip), vehicle: Klucel (hydroxypropylcellulose) (HPC) 95 % of control

O=C1SCCC1NP(=O)(OCc1ccccc1)OCc1ccccc1 (configuration not stated)
inactive: dose: 100.0 mg/kg/injection, schedule: Q01DX001 (ip), vehicle: saline with Tween-80 102 % of control | dose: 200.0 mg/kg/injection, schedule: Q01DX001 (ip), vehicle: saline with Tween-80 102 % of control | dose: 400.0 mg/kg/injection, schedule: Q01DX001 (ip), vehicle: saline with Tween-80 98 % of control

CCCC[P+](c1ccccc1)(c1ccccc1)c1ccccc1
inactive: dose: 6.25 mg/kg/injection, schedule: Q04DX003 (ip), vehicle: saline 107 % of control | [3] 114 % of control | dose: 12.5 mg/kg/injection, schedule: Q01DX009 (ip), vehicle: saline 113 % of control | dose: 12.5 mg/kg/injection, schedule: Q04DX003 (ip), vehicle: saline 107 % of control | dose: 25.0 mg/kg/injection, schedule: Q01DX009 (ip), vehicle: Klucel (hydroxypropylcellulose) (HPC) 112 % of control | dose: 25.0 mg/kg/injection, schedule: Q01DX009 (ip), vehicle: saline 115 % of control | dose: 25.0 mg/kg/injection, schedule: Q04DX003 (ip), vehicle: saline 105 % of control | dose: 50.0 mg/kg/injection, schedule: Q01DX009 (ip), vehicle: Klucel (hydroxypropylcellulose) (HPC) 109 % of control | dose: 50.0 mg/kg/injection, schedule: Q04DX003 (ip), vehicle: saline 104 % of control

O=C(OCCCCCCl)c1ccccc1
inactive: [14] 100 % of control | [1] 106 % of control | [15] 104 % of control | [16] 97 % of control | dose: 400.0 mg/kg/injection, schedule: Q01DX009 (ip), vehicle: saline with Tween-80 98 % of control | [2] 95 % of control

CCCCCCCCCC(O)CCCCC (configuration not stated)
inactive: [14] 103 % of control | [5] 98 % of control | [15] 107 % of control | [7] 97 % of control | [9] 101 % of control

OCC(O)C(O)C(O)CC(c1ccc(Cl)cc1)c1ccc(Cl)cc1 (configuration not stated)
inactive: [17] 102 % of control | [18] 102 % of control | [19] 106 % of control | [20] 107 % of control

CC(=O)Nc1ccc(OC(=O)Oc2ccc(NC(C)=O)cc2)cc1
inactive: [17] 101 % of control | [18] 97 % of control | [19] 95 % of control | [20] 95 % of control

CC(=O)Nc1ccc(SC(=O)N(C)C)cc1
inactive: dose: 12.5 mg/kg/injection, schedule: Q01DX009 (ip), vehicle: saline + alcohol 90 % of control | dose: 25.0 mg/kg/injection, schedule: Q01DX009 (ip), vehicle: saline + alcohol 95 % of control | dose: 25.0 mg/kg/injection, schedule: Q04DX003 (ip), vehicle: saline with Tween-80 98 % of control | dose: 50.0 mg/kg/injection, schedule: Q01DX009 (ip), vehicle: saline + alcohol 101 % of control | [21] 104 % of control | [1] 103 % of control

CCOC(=O)/C=C\SCC(=O)OCC
inactive: dose: 100.0 mg/kg/injection, schedule: Q04DX002 (ip), vehicle: saline 104 % of control | dose: 200.0 mg/kg/injection, schedule: Q04DX002 (ip), vehicle: saline 104 % of control | dose: 400.0 mg/kg/injection, schedule: Q04DX002 (ip), vehicle: saline 93 % of control

CCCCCCCC(=O)Nc1cc2c3c(c1)CCCN3CCC2
inactive: [21] 103 % of control | [1] 97 % of control | [16] 103 % of control

CCCCCOP(=O)(Cc1ccc(Cl)cc1)OCCCCC
inactive: [5] 87 % of control | [7] 90 % of control | [9] 100 % of control

From PubChem BioAssay AID248 (DTP/NCI, 2004)
